Take `O=C(c1cccc(-c2ccccc2)c1C(=O)C(Cl)(Cl)Cl)C(Cl)(Cl)Cl`: the melting point fell in the range of 137 to 152 °C.
The same measure for `COc1cccc(C(=C/C=C/C(=O)O)c2cccc(OC)c2)c1`: 179 to 180 °C; for `CC(C)=C(C(=O)O)c1cc(C(C)C)c(O)c2c(Cc3ccccc3)cccc12`: 264 to 266 °C.
Compound `O=c1c(-c2cccs2)nc2ccccc2n1CC1CCCO1` (stereo not given) displayed a melting point of 123 °C.
The result for `CC1CCC(C(C)C)C(C(C#Cc2ccc(Cc3ccc(F)cc3)o2)N(O)C(N)=O)C1` (stereo not given) reads 154 to 156 °C.
The result for `CC(C)N1C(=O)NC(c2cnc3ccccc3c2)c2cc3c(cc21)OCO3` (stereo not given) reads 202 to 205 °C; that for `C=CCN1C(=O)COc2cc(Br)c(F)cc21`, 92 °C; that for `CC(=O)Oc1ccccc1C(=O)Nc1cc(Cl)cc(Cl)c1`, 167 to 168 °C.
The same measure for `COc1cc(C(C)=O)ccc1OC/C=C/CBr`: 71 to 72 °C.
With `Cc1ccc(NC(=O)c2ccc(CN3C(=O)C4(COc5cc6c(cc54)CCO6)c4ccccc43)cc2)c(C)c1` (stereo not given), the melting point fell in the range of 249 to 251 °C.
The same measure for `CC(=O)OC1=CCC2C3CCC4CCC(OC(C)=O)CC4(C)C3CCC12C` (stereo not given): 133 to 134 °C.
In the case of `CC1NC(=O)c2ccccc2O1` (stereo not given), the melting point was in the range of 124 to 126 °C.
Compound `Clc1ccccc1-c1cnn2cnnc2n1` gave a melting point of 162 to 165 °C.
In the case of `COc1ccc(CN(CCN(C)CCCNC(=O)NCCSCc2csc(NC(=N)N)n2)c2ccccn2)cc1`, the melting point lay in the range of 106 to 109 °C.
The same measure for `COc1nc(N2CCCCC2)nc(OC)c1O`: 109 °C; for `C[C@H]1C(=O)C[C@@H]2C[C@H]1OO[C@@]2(C)C=O`: 92 °C.
In the case of `O=[N+]([O-])c1cccc2c3c(cc([N+](=O)[O-])c12)NCC3CCl` (stereo not given), the melting point fell in the range of 206 to 207 °C.
The compound `COc1cc(C=Cc2ccccc2)cc(OC)c1OC` displayed a melting point of 108 °C.
The result for `CCOC(=O)c1nc(NC)sc1-c1nc2ccccn2c1C` reads 183 to 185 °C; that for `Cc1cn(C(C)C(=O)N(C)C)nc1-c1cccc(Cl)c1` (stereo not given), 73 to 75 °C; that for `CCOC(=O)c1cc2c(nc1C)C(CBr)CCCC2` (stereo not given), 50 to 51 °C.
The same measure for `O=C1Cc2cc(-c3ccccc3)ccc2N1`: 214 to 215 °C.
The same measure for `CCC(=O)Nc1ccnn1-c1ncc(Cl)cc1Cl`: 116 to 124 °C.
`O=C1CSCc2nc(-c3ccccc3)ccc21` yielded a melting point of 78 to 81 °C.
For the compound `CCN1c2ncc(CCc3ccncc3)cc2C(=O)N(C)c2ccc(I)nc21`, the melting point was determined as 174 °C.
With `C=C1C(=O)CCC(C)(C)C1=O`, the melting point was 115 to 116 °C.
The compound `OCCOc1cccc(OCc2ccccc2)c1` returned a melting point of 40.5 to 43.5 °C.
`Nc1nc2cccnc2c2c1nc(CO)n2CC1(O)CCOCC1` gave a melting point of more than 250 °C.
Take `Cc1c2c(c(-c3ccc(F)cc3)c3c4c(ccc13)OCO4)CNC2=O`: the melting point was 293 to 295 °C.
The result for `O=C1Nc2cc(F)ccc2N2CCN(CCCCc3ccncc3)CC12` (stereo not given) reads 262 to 264 °C; that for `CN(CC(=C1NCCCS1)[N+](=O)[O-])c1ccccc1`, 105 to 106 °C.
The same measure for `CCCCCC(=O)N1CCc2nc3ccccc3c(C)c2CC1`: 109 °C; for `CC(C)(C(=O)O)c1ccc(C(O)CCCN2CCC(=C3c4ccccc4CCc4ccccc43)CC2)cc1` (stereo not given): 135 to 137 °C.
The same measure for `O=C(CCc1ccc(Cl)cc1Cl)NC1N=C(C2CC2)c2ccccc2N(CC(F)(F)F)C1=O` (single isomer, unassigned; (+)): 64 to 66 °C; for `c1ccc(Cc2n[nH]c(NCCCCOc3cccc(CN4CCCCC4)c3)n2)cc1`: 145 to 146 °C.
Turning to `COC(=O)C(Cc1ccccc1)NC(=O)C(N)(CC(=O)O)C(=O)N1CCCCC1` (stereo not given), the melting point was 225 to 227 °C.
The result for `COc1ccc(Cl)cc1-c1c(N)c(=O)[nH]c2cc(C(F)(F)F)c(Cl)cc12` reads 252 to 253 °C.
The result for `CCCCCN(CCC12CC3CC(CC(C3)C1)C2)C(=O)NC/C=C/c1ccncc1` reads 90 to 118 °C; that for `CC1Nc2ccc(-c3csc(C#N)c3)cc2C2(CCCCC2)O1` (stereo not given), 111 to 112 °C.
The compound `Nc1ccc(S(=O)(=O)c2cc(-c3ccccc3F)nc(N3CCCC3)c2)cc1` displayed a melting point of 246 to 248 °C.
The same measure for `Cc1cccc(C)c1-n1cc(C#N)c(=O)[nH]c1=O`: 267 to 269 °C.
The result for `CCOC(=O)c1cc2cc(N)ccc2nn1` reads 204 to 206 °C; that for `COc1ccc(C2=C(C#N)C(c3cccc4nonc34)c3c[nH]nc3N2)cc1` (stereo not given), 244 °C.
The same measure for `CCOC(=O)C(=C1SC=C(O)S1)S(C)(=O)=O`: 145 to 147 °C.
`CC(C)=CC(=O)N(C)c1cccc(Br)c1`: the melting point lay within 92 to 94 °C.
The same measure for `CC(C)(C)C(=O)Nc1cccc(P(c2ccccc2)c2cccc3ccccc23)n1` (stereo not given): 55 °C; for `COC(=O)C(c1ccc(Cl)cc1)c1c(Cl)cc(-n2ncc(=O)n(C)c2=O)cc1Cl` (stereo not given): 173 °C.
On to `CC(=O)CCOc1c(-c2ccc(S(C)(=O)=O)cc2)cnn(-c2ccc(F)c(F)c2)c1=O`, for which the melting point lay within 134 to 135 °C.
The compound `CNC(=O)c1ccc(COCc2csc3nc(C(=O)NCc4cccc(OC)c4)[nH]c(=O)c23)cc1` registered a melting point of 190 to 191 °C.
Take `Cc1cc(N2CCN(CCc3ccccc3)C2=O)sc1C(=O)NCc1cccnc1`: the melting point was in the range of 95 to 97 °C.
The same measure for `Cc1noc(NS(=O)(=O)c2ccccc2-c2ccc(-c3ncco3)cc2CN(C)C(=O)c2ccccc2Cl)c1C`: 125 to 135 °C.
Turning to `N#CCCn1[nH]c(C#N)c(N=Nc2ccc(S(=O)(=O)Cl)cc2)c1=O`, the melting point fell in the range of 178 to 180 °C.
The same measure for `COc1cc(OC)c2c(=O)c3oc4ccc(OC)cc4c3oc2c1`: 262 to 264 °C.
The same measure for `CS(=O)(=O)Oc1ccc2cc(CO)ccc2c1`: 96 to 98 °C; for `Cc1cc(-c2cccc(NC(=O)N[C@@H]3c4cc(C#N)ccc4OC(C)(C)[C@H]3O)c2)nn1C`: 120 to 130 °C.
The same measure for `COc1ccc2cc(-c3oc4ccccc4c3C(O)CC3CCCC3)ccc2c1` (stereo not given): 176 to 177 °C; for `COc1ccc2[nH]c3cc(-c4cc([N+](=O)[O-])ccc4OC)c4c(c3c2c1)C(=O)NC4=O`: 302 to 304 °C.
In the case of `COC(=O)c1cc(N)c(F)c(Br)n1`, the melting point lay within 187 to 190 °C.
`CC=CCNc1cc(C(=O)O)cc(S(N)(=O)=O)c1Sc1ccc(NC(C)=O)cc1` gave a melting point of 148 °C.
For `CS(=O)(=O)OC1CN(c2c(F)cc3c(=O)c(C(=O)O)cn(C4CC4)c3c2F)C1`, the melting point fell in the range of 240 to 244 °C.
For the compound `C=CCc1c(Cl)cc2c(c1O)OC(COS(=O)(=O)c1ccc(C)cc1)C2` (stereo not given), the melting point lay in the range of 128 to 131 °C.
The result for `CCOC(=O)C(C)OCc1cc2nc(C(F)(F)F)ccc2n1S(=O)(=O)c1ccc2ncsc2c1` (stereo not given) reads 96 °C.
The result for `COc1ccc(C(=O)Nc2ccccc2)cc1NC(=S)Nc1ccc(Cl)c(Cl)c1` reads 174 to 175 °C; that for `CCCN1NC(c2ccc(OC)cc2)C2=C1C(=Cc1ccc(OC)cc1)CSC2` (stereo not given), 132 to 134 °C; that for `COc1ccc2ccc(OC)c(C=O)c2c1`, 94 °C.
The result for `CCOC(=O)N=P(c1ccccc1)(c1ccccc1)c1ccccc1CN1CCCCC1` reads 121 to 123 °C.
`O=C(O)c1cc(-c2ccccc2)ccc1O` gave a melting point of 214 to 216 °C.
The same measure for `C=CCNC1=NN=C(c2ccc(Cl)cc2Cl)CS1`: 188 to 189 °C.
The same measure for `COC(=O)c1ccsc1`: 84 to 85 °C.
For `COc1ccc2c(c1)c(Cc1cc(=O)n(-c3cccc(F)c3)[nH]1)c(C)n2C(=O)c1ccc(Cl)cc1`, the melting point was in the range of 162 to 164 °C.
As to `NNc1cc(=O)[nH]c(N)n1`, the melting point fell in the range of 314 to 315 °C.
Turning to `CCOC(=O)c1cnn(-c2ccc(-n3cc(OC)c(=O)c(-c4ccnn4-c4ccccc4)n3)c(F)c2)c1O`, the melting point lay within 188 to 193 °C.
In the case of `Cc1ccc(-c2ccc3c(c2)C=C(C(=O)Nc2ccc(C4=NCCN4)cc2)CCO3)cc1`, the melting point was in the range of 282 to 283 °C.
The same measure for `COC(=O)C(O)(c1ccc(OC)cc1)c1ccc(OC)cc1`: 110 °C.
`Cc1cc(C)cc([PH](=O)c2cc(C)cc(C)c2)c1` had a melting point of 82.4 °C.
The result for `Nc1ccc(C(=S)N2CCCCC2)cc1` reads 162 to 164 °C; that for `CCOC(=O)c1cn(C2CC2)c2c(F)c(F)c(F)c(N)c2c1=O`, 223 to 225 °C; that for `CCCCOP(=O)(CCCC1(c2ccccn2)c2ccccc2-c2ccccc21)OCCCC`, 126 to 128 °C.
For `ClCCCOc1ccc(Cl)cc1`, the melting point was in the range of 35 to 36 °C.
The result for `O=C(CNc1c(C(=O)O)[nH]c2cc(Cl)cc(Cl)c12)c1ccc(Cl)cc1` reads 279 to 283 °C; that for `CCC1CCCCN1CCNc1ccnc2cc(Cl)ccc12` (racemic), 115 to 117 °C.
The same measure for `COC(=O)c1cc(N)c(Cl)c(S(=O)(=O)n2cccc2)c1`: 178 to 181 °C; for `CNC(=O)NS(=O)(=O)c1cc(CCNC(=O)c2cc(C(C)(C)C)ccc2OC)ccc1OC`: 209 to 212 °C; for `CCCCCn1c2c(c3ccc(OC)cc31)CN(S(=O)(=O)c1cccc3c(N(C)C)cccc13)CC2`: 71 to 72 °C.
The result for `O=C1SCC(O)=C1Cc1ccc2ccccc2c1Br` reads 205 to 206 °C; that for `CC(C)(N)Cc1c[nH]c2ccc(Cl)cc12`, 156 to 158 °C.
As to `CCCCOC1c2ccccc2C(=O)N(CC2CC2)C1(/C=C/C(=O)OCC)CNC(=O)OC(C)(C)C` (stereo not given), the melting point is 166 to 167 °C.
On to `Cn1cc(C(=O)Nc2ccccc2-c2ccc(Cl)cc2Cl)c(C(F)(F)F)n1`, for which the melting point fell in the range of 136 to 140 °C.
The same measure for `O=C(c1cncc(Br)c1)N1CCOCC1`: 49 to 51 °C; for `Fc1cccc(OC2CN([C@H]3CC[C@@H](c4c[nH]c5ccc(F)cc54)CC3)C2)c1`: 119 to 125 °C.

By melting point is commonly meant the temperature, or range, at which the solid turns liquid.

The values above are taken from a melting point compilation (Tetko et al.; mined from patent text by program, amines drawn as free bases though some values may be those of a salt).
